Measurements published in patent US20240423962A1, “FASCIN BINDING COMPOUNDS FOR SPINOGENESIS” (Spinogenix, Inc., priority 2018, published 2024).

Assays:
fascin = fascin (Homo sapiens, UniProt Q16658); settings: cited from earlier work
[1] = tested on: primary mouse cortical neurons; test: Synaptic density of primary mouse cortical neurons (synaptophysin P38 puncta), FIG. 6; assay type: cell-based; settings: luM, 24 hours of treatment
Description: The effect of the indicated compounds on the synaptic density of primary mouse cortical neurons was determined after 24 hours of treatment. FIG. 6. Primary mouse cortical neurons were treated on day 15 in vitro with fascin-inhibiting small molecules at luM, or with vehicle (DMSO). After 24 hours of treatment, neurons were fixed, immunolabeled for a protein component of synapses, the presynaptic vesicle protein, synaptophysin (P38), and then stained with the nuclear dye DAPI. Immunolabeled neurons were imaged on a Leica confocal microscope. The numbers of P38-immunopositive puncta were analyzed using FUI with the Squash plugin.

## O=C(Nc1nn(Cc2ccc(C(F)(F)F)cc2)c2ccccc12)c1ccco1 [compound 1, N-(1-(4-(trifluoromethyl)benzyl)-1H-indazol-3-yl)furan-2-carboxamide]
fascin; FIG. 5
  Fascin binding site: bind to fascin at binding site 2
fascin
  Effect of binding on actin-binding sites of fascin: opens actin-binding site 2 and closes actin-binding site 1
[1]
  Spine density compared to comparative compounds: increase spine density more than comparative compounds 1 and 7
[1]; vs vehicle (DMSO)
  Spine density compared to control: increase spine density compared to control
